Consider 6 compounds from US20230159484A1, “FLUORESCENT DYES HAVING HIGH STOKES SHIFT, ON THE BASIS OF BRIDGED BENZOPYRYLIUM SALTS” (DYOMICS GmbH, priority 2020, published 2023).

Format in all cases: physicochemical
A short description of data set [1]: Fluorescence emission (emission maximum). On the procedure: (§1) Depending on the basic structure and substitution, the absorption maxima lie in the entire range of visible light, with a focus at 500-530 nm. The compounds show a high Stokes shift in the range of 80 nm. The absorption is measured, for example, at 25° C. in aqueous or ethanolic solutions with an extinction of 1.0 using a Specord 205 from Analytik Jena, wherein the aqueous solutions are preferably phosphate-buffered salt solutions (PBS buffer; approx. 100 mM sodium chloride and 100 mM total phosphate) and have a pH of 7.5. For example, the emission is measured at 25° C. in dilute aqueous or ethanolic solutions with an extinction of 0.1 using a FP-6600 spectrofluorometer from Jasco, wherein the dilute aqueous solutions are preferably phosphate-buffered salt solutions (PBS buffer; about 100 mM sodium chloride and 100 mM total phosphate) and have a pH of 7.5.

Data set [2] in a line: Fluorescence emission (emission maximum). This is another data set of the same source.
The nature of data set [3]: UV-Vis absorption (absorption maximum, extinction coefficient). The method, then: as §1
The nature of data set [4]: Fluorescence quantum yield. The method, then:
Preferably, the fluorescence quantum yield of a compound according to the invention is 0.1 to 0.95, more preferably 0.5 to 0.9. Fluorescence quantum yields are preferably determined at 25° C. in dilute aqueous or ethanolic solutions with an extinction of 0.1 using a Hamamatsu Absolute Photoluminescence Quantum Yield Measurement System C-9920, wherein the dilute aqueous solutions are preferably phosphate-buffered salt solutions (PBS buffer; about 100 mM sodium chloride and 100 mM total phosphate) and have a pH of 7.5. The compounds thus complement the already commercially available dyes with high Stokes Shift or represent better fluorescent alternatives.

Consider `CCN(CCCCCC(=O)O)c1ccc2c(c1)OC1=C(c3ccncc3)C(=O)CC(C)(C)C1=C2` [Compound 44, 6-[[8,8-dimethyl-6-oxo-5-(4-pyridyl)-7H-xanthene-3-yl]-ethyl-amino]hexanoic Acid], for which the λem in data set [1] (in PBS) was determined as 573 nm; in data set [2] (in buffer pH 5), 600 nm. Also, the figures for the ε in data set [3] (UV-Vis in PBS) and in data set [3] (UV-Vis in buffer pH 5) were 13,000 l/mol*cm and 13300 L/mol/cm, respectively. Moreover, the λmax worked out at 472 nm in data set [3] (UV-Vis in PBS) and 523 nm in data set [3] (UV-Vis in buffer pH 5).
Turning to `CC1(C)CC(=O)C(c2ccncc2)=C2Oc3cc(N(CCCCCC(=O)O)CCCS(=O)(=O)[O-])ccc3C=C21.[Na+]` [Compound 45, 3-[5-carboxypentyl-[8,8-dimethyl-6-oxo-5-(4-pyridyl)-7H-xanthene-3-yl]amino]propane-1-sulfonate Sodium Salt], the λem is 570 nm in data set [1] (in PBS) and 594 nm in data set [2] (in buffer pH 5). Besides, the values for the ε in data set [3] (UV-Vis in PBS) and in data set [3] (UV-Vis in buffer pH 5) were 15000 L/mol/cm and 15400 L/mol/cm, respectively. Further, the λmax is reported as 470 nm in data set [3] (UV-Vis in PBS) and 524 nm in data set [3] (UV-Vis in buffer pH 5).
In the case of `CC1(C)CC(=O)C(S(=O)(=O)[O-])=C2Oc3cc(O)ccc3C=C21.[Na+]` [Compound 39, 6-hydroxy-1,1-dimethyl-3-oxo-2H-xanthene-4-sulfonate Sodium Salt], the λem in data set [1] (in PBS) is given as 485 nm; in data set [2] (in buffer pH 9), 536 nm. Also, the λmax in data set [3] (UV-Vis in PBS) is 409 nm; in data set [3] (UV-Vis in buffer pH 9) it was 462 nm.
As to `CC1=CC(C)(C)N(CCCS(=O)(=O)[O-])c2cc3[o+]c4c(cc3cc21)C(C)(C)CC(N(C)CCCC(=O)O)=C4` [Compound 23, 3-[9-[3-carboxypropyl(methyl)amino]-2,2,4,7,7-pentamethyl-8H-chromeno[3,2-g]quinolin-11-ium-1-yl]propane-1-sulfonate], the QY in data set [4] (in PBS) came out at 0.58; in data set [4] (in ethanol) it was 0.88. For the same compound, the λem in data set [1] (in PBS) and in data set [1] (in ethanol) was 600 nm each time. In addition, the ε was 45,400 l/mol*cm in data set [3] (UV-Vis in PBS) and 55,000 l/mol*cm in data set [3] (UV-Vis in ethanol). Further, the λmax in data set [3] (UV-Vis in PBS) was 527 nm; in data set [3] (UV-Vis in ethanol), 542 nm.
In the case of `CC1(C)CC(NCCCS(=O)(=O)[O-])=Cc2[o+]c3cc(N(CCCCCC(=O)O)CCCS(=O)(=O)[O-])ccc3cc21.[Na+]` [Compound 5, 3-[[6-[5-carboxypentyl(3-sulfonatopropyl)amino]-1,1-dimethyl-2H-xanthene-10-ium-3-yl]amino]propane-1-sulfonate Sodium Salt], the QY in data set [4] (in PBS) amounted to 0.72; in data set [4] (in ethanol) it was 0.87. The λem worked out at 572 nm in data set [1] (in PBS) and 570 nm in data set [1] (in ethanol). Further, the ε in data set [3] (UV-Vis in PBS) is 45,000 l/mol*cm; in data set [3] (UV-Vis in ethanol) it was 49,800 l/mol*cm. Also, the λmax in data set [3] (UV-Vis in PBS) is listed as 505 nm; in data set [3] (UV-Vis in ethanol) it was 512 nm.
With `CN(C1=Cc2[o+]c3cc(N(CCCCCC(=O)O)CCCS(=O)(=O)[O-])ccc3cc2C(C)(C)C1)c1ccc(S(=O)(=O)[O-])cc1.[Na+]` [Compound 10, 4-[[6-[5-carboxypentyl(3-sulfonatopropyl)amino]-1,1-dimethyl-2H-xanthene-10-ium-3-yl]-methyl-amino]benzenesulfonate sodium Salt], the QY in data set [4] (in PBS) is reported as 0.35; in data set [4] (in ethanol), 0.57. The λem in data set [1] (in PBS) came out at 612 nm; in data set [1] (in ethanol), 609 nm. Moreover, the ε is reported as 44,000 l/mol*cm in data set [3] (UV-Vis in PBS) and 48,000 l/mol*cm in data set [3] (UV-Vis in ethanol). Moreover, the λmax in data set [3] (UV-Vis in PBS) is 527 nm; in data set [3] (UV-Vis in ethanol) it was 533 nm.
